Results on 51 compounds are retold here after US8063221B2, “Aminoquinolones as GSK-3 inhibitors” (Kyorin Pharmaceutical Co., Ltd., priority 2006, dated 2011).

One assay deals with T1, recombinant full-length human GSK3β (Homo sapiens, UniProt P49841).
T1 construct: recombinant full-length human GSK3β (Upstate); purchased Upstate
T1 sequence (P49841 whole entry): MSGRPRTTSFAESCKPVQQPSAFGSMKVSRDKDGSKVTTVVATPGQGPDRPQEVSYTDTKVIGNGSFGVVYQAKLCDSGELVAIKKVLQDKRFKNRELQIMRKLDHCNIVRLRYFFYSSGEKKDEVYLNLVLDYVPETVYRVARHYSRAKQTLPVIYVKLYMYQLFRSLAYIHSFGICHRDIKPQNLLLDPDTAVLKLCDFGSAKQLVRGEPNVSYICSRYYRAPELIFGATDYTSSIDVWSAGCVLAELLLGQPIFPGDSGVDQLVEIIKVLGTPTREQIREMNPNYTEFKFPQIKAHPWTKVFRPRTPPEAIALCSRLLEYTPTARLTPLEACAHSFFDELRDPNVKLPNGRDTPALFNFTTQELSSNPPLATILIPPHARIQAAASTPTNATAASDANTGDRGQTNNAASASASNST
Description: Luciferase-coupled cell-free GSK3β kinase assay. Format: biochemical. Particulars: Table 1. How it is done:
For compounds in Tables 1 and 2, IC50 (μM) for GSK3β enzyme in cell free assay is provided as follows:
Luciferase-Coupled Protein Kinase Assays
All coupled-luciferase assays are performed by using a brief incubation with firefly luciferase (Promega) after completion of the kinase assay. KinaseGlo Plus is used for reading kinase reactions with ATP>10 μM, KinaseGlo for ATP <10 μM. The assay volume in a 384-well plate for the kinase reaction is 30 microliters.
10-25 ng of recombinant full-length human GSK3β (Upstate) is incubated in the presence or absence of compound at varying concentrations for 1 hour at 30 degrees Celsius in 20 mM MOPS, pH 7.0, 10 mM magnesium acetate, 0.2 mM EDTA, 2 mM EGTA, 30 mM magnesium chloride, 62.5 μM phospho-glycogen synthase peptide-2, 5 μM ATP, 10 mM β-glycerol phosphate, 1 mM sodium orthovanadate and 1 mM dithiothreitol. Proceed to KinaseGlo luciferase reaction (see below).
Following the completion of the kinase reaction an equal volume of KinaseGlo or KinaseGlo Plus luciferase reagent (Promega) is added and the luminescence read using a luminescence plate reader within 5-10 minutes. Compound activity is expressed as % inhibition relative to maximal inhibition observed at the maximal dose and IC50 values then calculated using curve fitting software (GraphPad Prizm).
As usually defined, the IC50 is the concentration that inhibits the measured activity by half. On to `Nc1c(F)c(NCCc2ccc(-c3ccccc3)cc2)c(F)c2c1c(=O)ccn2C1CC1` [compound 27], for which the concentration for half-maximal inhibition (IC50) was over 1000 nM.

Regarding `Nc1cc(NCCCc2ccccc2)cc2c1c(=O)c(C(=O)O)cn2C1CC1` [compound 45], the IC50 is over 1000 nM.

Take `Nc1c(F)c(NCCc2ccc(F)cc2F)c(F)c2c1c(=O)ccn2C1CC1` [compound 31]: the IC50 is over 1000 nM.

Take `Nc1c(F)c(NCCNC(=O)c2ccncc2)c(F)c2c1c(=O)c(C(=O)O)cn2C1CC1` [compound 41]: the half-maximal inhibitory concentration (IC50) fell in the range of 500 to 1000 nM.

Turning to `Nc1cc(NCCNc2ccccn2)cc2c1c(=O)c(C(=O)O)cn2C1CC1` [compound 36], the 50% inhibitory concentration (IC50) was over 1000 nM.

`Nc1c(F)c(NCCn2ccnc2)c(F)c2c1c(=O)c(C(=O)O)cn2C1CC1` [compound 42]: the half-inhibitory concentration (IC50) is over 1000 nM.

As to `Nc1c(F)c(NCCNC(=O)c2ccccn2)c(F)c2c1c(=O)c(C(=O)O)cn2C1CC1` [compound 38], the half-inhibitory concentration (IC50) lay within 500 to 1000 nM.

As to `Nc1c(F)c(NCCc2ccc(Cl)cc2Cl)c(F)c2c1c(=O)c(C(=O)O)cn2C1CC1` [compound 18], the concentration for half-maximal inhibition (IC50) fell in the range of 500 to 1000 nM.

With `Nc1c(F)c(NCCc2ccc(Cl)cc2)c(F)c2c1c(=O)ccn2C1CC1` [compound 9], the half-maximal inhibitory concentration (IC50) was 500 to 1000 nM.

In the case of `Nc1c(F)c(NCCc2ccc(Cl)cc2)c(F)c2c1c(=O)c(C(=O)O)cn2C1CC1` [compound 4], the half-maximal inhibitory concentration (IC50) fell in the range of 100 to 500 nM.

Turning to `Nc1c(F)c(NCCNC(=O)c2ccccc2)c(F)c2c1c(=O)c(C(=O)O)cn2C1CC1` [compound 30], the IC50 fell in the range of 500 to 1000 nM.

Turning to `CC(C)OCCCNc1c(F)c(N)c2c(=O)ccn(C3CC3)c2c1F` [compound 25], the IC50 was over 1000 nM.

On to `Nc1c(F)c(NCCn2cncn2)c(F)c2c1c(=O)c(C(=O)O)cn2C1CC1` [compound 44], for which the IC50 was over 1000 nM.

In the case of `N#Cc1ccc(NCCNc2c(F)c(N)c3c(=O)c(C(=O)O)cn(C4CC4)c3c2F)nc1` [compound 37], the IC50 is 100 to 500 nM.

For the compound `Nc1c(F)c(NCCc2ccc(Cl)cc2Cl)c(F)c2c1c(=O)ccn2C1CC1` [compound 24], the IC50 was over 1000 nM.

With `Nc1c(F)c(NCc2ccc(Cl)cc2)c(F)c2c1c(=O)c(C(=O)O)cn2C1CC1` [compound 8], the half-inhibitory concentration (IC50) lay within 500 to 1000 nM.

Consider `Nc1c(F)c(NCCNC(=O)c2ccc3ccccc3n2)c(F)c2c1c(=O)c(C(=O)O)cn2C1CC1` [compound 39], for which the half-maximal inhibitory concentration (IC50) is 500 to 1000 nM.

The assay is the same for the next values; noted with them: Table 2.
On to `Nc1c(F)c(NCCCn2cnc3ccccc32)c2c3c1c(=O)c(C(=O)O)cn3CCCO2` [compound 45], for which the half-maximal inhibitory concentration (IC50) lay within 100 to 500 nM.

In the case of `CC1COc2c(NCCNc3cccc4ccccc34)c(F)c(N)c3c(=O)c(C(=O)O)cn1c23` (stereo not drawn) [compound 7], the 50% inhibitory concentration (IC50) is under 100 nM.

On to `C[C@H]1COc2c(NCCCc3nc4ccccc4[nH]3)c(F)c(N)c3c(=O)c(C(=O)O)cn1c23` [compound 82], for which the half-maximal inhibitory concentration (IC50) is under 100 nM.

Consider `C[C@H]1COc2c(NCCN3CCc4ccccc43)c(F)c(N)c3c(=O)c(C(=O)O)cn1c23` [compound 69], for which the 50% inhibitory concentration (IC50) was under 100 nM.

With `C[C@H]1COc2c(NCCCNC(=O)c3cccnc3)c(F)c(N)c3c(=O)c(C(=O)O)cn1c23` [Example 118], the IC50 was under 100 nM.

Take `CC1Cc2ccccc2N1C(=O)CCCNc1c(F)c(N)c2c(=O)c(C(=O)O)cn3c2c1OC[C@@H]3C` (stereo partly drawn) [compound 90]: the IC50 was in the range of 500 to 1000 nM.

As for `COc1ccc(CCCNc2c(F)c(N)c3c(=O)c(C(=O)O)cn4c3c2OC[C@@H]4C)cc1` [compound 73], the concentration for half-maximal inhibition (IC50) was under 100 nM.

As for `Nc1c(F)c(NCCCc2ccccc2)c2c3c1c(=O)c(C(=O)O)cn3CCCO2` [compound 46], the IC50 lay within 100 to 500 nM.

For `COc1ccc(OCCNc2c(F)c(N)c3c(=O)c(C(=O)O)cn4c3c2OC[C@@H]4C)cc1` [Compound 87], the 50% inhibitory concentration (IC50) lay within 100 to 500 nM.

On to `Cc1n[nH]c(SCCNc2c(F)c(N)c3c(=O)c(C(=O)O)cn4c3c2OC[C@@H]4C)n1` [Example 111], for which the IC50 was under 100 nM.

In the case of `C[C@H]1COc2c(NCCCc3ccc(Cl)cc3)c(F)c(N)c3c(=O)c(C(=O)O)cn1c23` [Example 102], the IC50 was under 100 nM.

As for `C[C@H]1COc2c(NCCOc3ccc(Cl)cc3)c(F)c(N)c3c(=O)c(C(=O)O)cn1c23` [compound 83], the IC50 was under 100 nM.

For the compound `CC(CCc1ccccc1Cl)Nc1c(F)c(N)c2c(=O)c(C(=O)O)cn3c2c1OC[C@@H]3C` (stereo partly drawn) [compound 88], the half-inhibitory concentration (IC50) lay in the range of 100 to 500 nM.

Turning to `COc1cccc(CCCNc2c(F)c(N)c3c(=O)c(C(=O)O)cn4c3c2OC[C@@H]4C)c1` [compound 89], the IC50 is under 100 nM.

`C[C@H]1COc2c(NCCCc3ccccc3)c(F)c(N)c3c(=O)c(C#N)cn1c23` [Example 108]: the IC50 was under 100 nM.

Regarding `COc1ccc(C(CCNc2c(F)c(N)c3c(=O)c(C(=O)O)cn4c3c2OC[C@@H]4C)c2ccc(F)cc2)cc1` (stereo partly drawn) [compound 81], the IC50 was under 100 nM.

Consider `CC1(C)COc2c(NCCCOc3ccccc3)c(F)c(N)c3c(=O)c(C(=O)O)cn(c23)C1` [compound 28], for which the half-maximal inhibitory concentration (IC50) lay within 100 to 500 nM.

`Cc1ccc(C(C)C)c(OCCNc2c(F)c(N)c3c(=O)c(C(=O)O)cn4c3c2OC[C@@H]4C)c1` [compound 85]: the half-inhibitory concentration (IC50) is 100 to 500 nM.

Turning to `C[C@H]1COc2c(NCCCNC(=O)c3ccccn3)c(F)c(N)c3c(=O)c(C(=O)O)cn1c23` [Example 117], the half-maximal inhibitory concentration (IC50) was under 100 nM.

Regarding `Cc1ccc2nc(C)cc(NCCNc3c(F)c(N)c4c(=O)c(C(=O)O)cn5c4c3OC[C@@H]5C)c2c1` [Example 100], the IC50 was under 100 nM.

In the case of `C[C@H]1COc2c(NCCCN3CCc4ccccc43)c(F)c(N)c3c(=O)c(C(=O)O)cn1c23` [compound 68], the IC50 lay within 100 to 500 nM.

As to `COc1ccc(OCC(C)Nc2c(F)c(N)c3c(=O)c(C(=O)O)cn4c3c2OC[C@@H]4C)cc1` (stereo partly drawn) [compound 86], the half-maximal inhibitory concentration (IC50) was in the range of 500 to 1000 nM.

Take `Nc1c(F)c(NCCCn2cc[n+]3ccccc23)c2c3c1c(=O)c(C(=O)O)cn3CCO2` [compound 10]: the half-maximal inhibitory concentration (IC50) is 500 to 1000 nM.

As for `COc1c(NCCNc2cccc3ccccc23)c(F)c(N)c2c(=O)ccn(C3CC3)c12` [compound 66], the IC50 was under 100 nM.

Turning to `C[C@H]1COc2c(NCCN3CCC(c4ccccc4)C3)c(F)c(N)c3c(=O)c(C(=O)O)cn1c23` (stereo partly drawn) [Example 91], the IC50 was over 1000 nM.

Turning to `Nc1c(F)c(NCCCn2ccnc2)c2c3c1c(=O)c(C(=O)O)cn3CCCO2` [compound 53], the IC50 was 100 to 500 nM.

Consider `C[C@H]1COc2c(NCCSc3c[nH]c4ccccc34)c(F)c(N)c3c(=O)c(C(=O)O)cn1c23` [Example 116], for which the IC50 was under 100 nM.

In the case of `CC1COc2c(NCCCn3cnc4ccccc43)c(F)c(N)c3c(=O)ccn1c23` (stereo not drawn) [compound 47], the IC50 was in the range of 100 to 500 nM.

As to `C[C@H]1COc2c(NCCC(c3ccccc3)c3ccc4c(c3)OCO4)c(F)c(N)c3c(=O)c(C(=O)O)cn1c23` (stereo partly drawn) [Example 97], the IC50 lay in the range of 100 to 500 nM.

In the case of `Cc1cc(NCCNc2c(F)c(N)c3c(=O)c(C(=O)O)cn4c3c2OC[C@@H]4C)c2ccccc2n1` [Example 94], the IC50 is under 100 nM.

As for `C[C@H]1COc2c(NCCOc3ccccc3)c(F)c(N)c3c(=O)c(C(=O)O)cn1c23` [Example 99], the IC50 was under 100 nM.

As to `C[C@H]1COc2c(NCCCc3ccccc3Cl)c(F)c(N)c3c(=O)c(C(=O)O)cn1c23` [compound 75], the IC50 is under 100 nM.

In the case of `C[C@H]1COc2c(NCCC3CCCCC3)c(F)c(N)c3c(=O)c(C(=O)O)cn1c23` [Example 104], the half-maximal inhibitory concentration (IC50) is under 100 nM.

Regarding `Nc1c(F)c(NCCNc2ccccn2)c2c3c1c(=O)c(C(=O)O)cn3CCCO2` [compound 11], the 50% inhibitory concentration (IC50) is over 1000 nM.
